Results from US10759783B2, “Biaryl inhibitors of Bruton'S tyrosine kinase” (BIOGEN MA INC., priority 2013, dated 2020).

What was measured:
[1] = target: BTK (phospho-BTK) in human whole blood (Homo sapiens, UniProt Q06187); assay: In vitro PD assay in human whole blood (pBTK assay)
BTK enzyme = target: T1, BTK enzyme (Homo sapiens, UniProt Q06187); assay: In vitro BTK kinase assay: BTK-POLYGAT-LS assay; format: biochemical; conditions: ATP 10 μM, read-out: IC50 (10uMATP)
T1 construct: purchased Upstate 14-552
Method in brief: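 Human BTK activity was measured with final 10 μM ATP and 100 nM polyGAT substrate in pH 7.5 Tris buffer with 10 mM MgCl2, DTT, Triton X-100 and casein.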

T1 sequence (Q06187 whole entry): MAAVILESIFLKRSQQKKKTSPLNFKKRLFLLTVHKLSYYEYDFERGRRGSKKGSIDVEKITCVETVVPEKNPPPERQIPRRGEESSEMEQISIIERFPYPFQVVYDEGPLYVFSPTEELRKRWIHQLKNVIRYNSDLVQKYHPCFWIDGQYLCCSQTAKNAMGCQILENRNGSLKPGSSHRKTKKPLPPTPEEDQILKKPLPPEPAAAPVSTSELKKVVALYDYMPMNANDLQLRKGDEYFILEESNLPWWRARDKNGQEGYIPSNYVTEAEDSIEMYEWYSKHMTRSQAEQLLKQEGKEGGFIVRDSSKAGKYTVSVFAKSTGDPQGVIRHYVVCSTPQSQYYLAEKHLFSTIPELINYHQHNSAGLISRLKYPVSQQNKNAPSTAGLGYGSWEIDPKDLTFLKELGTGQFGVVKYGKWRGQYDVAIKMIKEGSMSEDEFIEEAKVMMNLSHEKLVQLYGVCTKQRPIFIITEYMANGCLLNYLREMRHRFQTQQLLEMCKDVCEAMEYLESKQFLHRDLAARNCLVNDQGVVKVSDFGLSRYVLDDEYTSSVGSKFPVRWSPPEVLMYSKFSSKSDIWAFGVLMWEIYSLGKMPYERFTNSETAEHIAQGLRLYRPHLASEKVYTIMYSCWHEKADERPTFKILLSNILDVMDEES
Chain of BTK (phospho-BTK) in human whole blood (Q06187 whole entry): as above

Compound | IC50 [1] [nM] | IC50 (BTK enzyme) [nM]
CCn1cc(Nc2nccc(-c3ccc4c(c3)CCCCC4NC(=O)N3CC(OC(C)(C)C)C3)n2)cn1 (stereo not drawn) [Example I-173, 3-(tert-butoxy)-N-(2-(2-((1-ethyl-1H-pyrazol-4-yl)amino)pyrimidin-4-yl)-6,7,8,9-tetrahydro-5H-benzo[7]annulen-5-yl)azetidine-1-carboxamide] | < 500 | < 10
CC(C)n1cc(Nc2nccc(-c3ccc4c(c3)CCCCC4NC(=O)N3CC(OC(C)(C)C)C3)n2)cn1 (stereo not drawn) [Example I-174, 3-(tert-butoxy)-N-(2-(2-((1-isopropyl-1H-pyrazol-4-yl)amino)pyrimidin-4-yl)-6,7,8,9-tetrahydro-5H-benzo[7]annulen-5-yl)azetidine-1-carboxamide] | < 500 | < 10
COCCn1cc(Nc2nccc(-c3ccc4c(c3)CCCCC4NC(=O)N3CC(OC(C)(C)C)C3)n2)cn1 (stereo not drawn) [Example I-175, 3-(tert-butoxy)-N-(2-(2-((1-(2-methoxyethyl)-1H-pyrazol-4-yl)amino)pyrimidin-4-yl)-6,7,8,9-tetrahydro-5H-benzo[7]annulen-5-yl)azetidine-1-carboxamide] | < 500 | < 10
COCCn1cc(Nc2nccc(-c3ccc4c(c3)CCCC[C@H]4NC(=O)N3CC(OC(C)(C)C)C3)n2)cn1 [Example I-176, (R)-3-(tert-butoxy)-N-(2-(2-((1-(2-methoxyethyl)-1H-pyrazol-4-yl)amino)pyrimidin-4-yl)-6,7,8,9-tetrahydro-5H-benzo[7]annulen-5-yl)azetidine-1-carboxamide] | < 500 | < 10
CC(C)(C)OC1CN(C(=O)NC2CCCCc3cc(-c4ccnc(Nc5cnn(CCO)c5)n4)ccc32)C1 (stereo not drawn) [Example I-178, 3-(tert-butoxy)-N-(2-(2-((1-(2-hydroxyethyl)-1H-pyrazol-4-yl)amino)pyrimidin-4-yl)-6,7,8,9-tetrahydro-5H-benzo[7]annulen-5-yl)azetidine-1-carboxamide] | < 500 | < 10
CC(C)(C)OC1CN(C(=O)NC2CCCCc3cc(-c4ccnc(Nc5cnn(C6CCOCC6)c5)n4)ccc32)C1 (stereo not drawn) [Example I-179, 3-(tert-butoxy)-N-(2-(2-((1-(tetrahydro-2H-pyran-4-yl)-1H-pyrazol-4-yl)amino)pyrimidin-4-yl)-6,7,8,9-tetrahydro-5H-benzo[7]annulen-5-yl)azetidine-1-carboxamide] | < 500 | < 10
CN1CCC(n2cc(Nc3nccc(-c4ccc5c(c4)CCCCC5NC(=O)N4CC(OC(C)(C)C)C4)n3)cn2)CC1 (stereo not drawn) [Example I-180, 3-(tert-butoxy)-N-(2-(2-((1-(1-methylpiperidin-4-yl)-1H-pyrazol-4-yl)amino)pyrimidin-4-yl)-6,7,8,9-tetrahydro-5H-benzo[7]annulen-5-yl)azetidine-1-carboxamide] | < 500 | < 10
CC(C)C1CCN(C(=O)NC2CCCCc3cc(-c4ccnc(Nc5cnn(CCO)c5)n4)ccc32)C1 (stereo not drawn) [Example I-181, N-(2-(2-((1-(2-hydroxyethyl)-1H-pyrazol-4-yl)amino)pyrimidin-4-yl)-6,7,8,9-tetrahydro-5H-benzo[7]annulen-5-yl)-3-isopropylpyrrolidine-1-carboxamide] | < 500 | < 10
CC(C)(C)OC1CN(C(=O)NC2CCCCc3cc(-c4ccnc(Nc5cnn6c5CCC6)n4)ccc32)C1 (stereo not drawn) [Example I-182, 3-(tert-butoxy)-N-(2-(2-((5,6-dihydro-4H-pyrrolo [1,2-b]pyrazol-3-yl)amino)pyrimidin-4-yl)-6,7,8,9-tetrahydro-5H-benzo[7]annulen-5-yl)azetidine-1-carboxamide] | < 500 | < 10
COCCn1cc(Nc2nccc(-c3ccc4c(c3)CCCCC4NC(=O)N3CCC(C(C)(C)C)C3)n2)cn1 (stereo not drawn) [Example I-186, 3-(tert-butyl)-N-(2-(2-((1-(2-methoxyethyl)-1H-pyrazol-4-yl)amino)pyrimidin-4-yl)-6,7,8,9-tetrahydro-5H-benzo[7]annulen-5-yl)pyrrolidine-1-carboxamide] | < 500 | < 10

Other lines, results leading:

IC50 [1] [nM] | IC50 (BTK enzyme) [nM] | Compound
< 500 | < 10 | CC(C)OC1CN(C(=O)NC2CCCCc3cc(-c4ccnc(Nc5cnn(CCO)c5)n4)ccc32)C1 (stereo not drawn) [Example I-168, N-(2-(2-((1-(2-hydroxyethyl)-1H-pyrazol-4-yl)amino)pyrimidin-4-yl)-6,7,8,9-tetrahydro-5H-benzo[7]annulen-5-yl)-3-isopropoxyazetidine-1-carboxamide]
< 500 | < 10 | CC(C)OC1CN(C(=O)N[C@@H]2CCCCc3cc(-c4ccnc(Nc5cnn(CCO)c5)n4)ccc32)C1 [Example I-169, (R)—N-(2-(2-((1-(2-hydroxyethyl)-1H-pyrazol-4-yl)amino)pyrimidin-4-yl)-6,7,8,9-tetrahydro-5H-benzo[7]annulen-5-yl)-3-isopropoxyazetidine-1-carboxamide]
< 500 | < 10 | COCCn1cc(Nc2nccc(-c3ccc4c(c3)CCCCC4NC(=O)N3CC(OC(C)C)C3)n2)cn1 (stereo not drawn) [Example I-171, 3-isopropoxy-N-(2-(2-((1-(2-methoxyethyl)-1H-pyrazol-4-yl)amino)pyrimidin-4-yl)-6,7,8,9-tetrahydro-5H-benzo[7]annulen-5-yl)azetidine-1-carboxamide]
< 500 | < 10 | CC(C)OC1CN(C(=O)NC2CCCCc3cc(-c4ccnc(Nc5cnn(C6CCOCC6)c5)n4)ccc32)C1 (stereo not drawn) [Example I-172, 3-isopropoxy-N-(2-(2-((1-(tetrahydro-2H-pyran-4-yl)-1H-pyrazol-4-yl)amino)pyrimidin-4-yl)-6,7,8,9-tetrahydro-5H-benzo[7]annulen-5-yl)azetidine-1-carboxamide]
< 500 | < 10 | COCCn1cc(Nc2nccc(-c3ccc4c(c3)CCCCC4NC(=O)N3CCC(C(C)C)C3)n2)cn1 (stereo not drawn) [Example I-183, 3-Isopropyl-N-(2-(2-((1-(2-methoxyethyl)-1H-pyrazol-4-yl)amino)pyrimidin-4-yl)-6,7,8,9-tetrahydro-5H-benzo[7]annulen-5-yl)pyrrolidine-1-carboxamide]
< 500 | < 10 | CC(C)(C)C1CCN(C(=O)NC2CCCCc3cc(-c4ccnc(Nc5cnn(CCO)c5)n4)ccc32)C1 (stereo not drawn) [Example I-185, 3-(tert-butyl)-N-(2-(2-((1-(2-hydroxyethyl)-1H-pyrazol-4-yl)amino)pyrimidin-4-yl)-6,7,8,9-tetrahydro-5H-benzo[7]annulen-5-yl)pyrrolidine-1-carboxamide]
< 500 | < 10 | CC(C)OC1CN(C(=O)NC2CCN(CC(F)(F)F)Cc3cc(-c4ccnc(Nc5cnn(C)c5)n4)ccc32)C1 (stereo not drawn) [Example I-187, 3-isopropoxy-N-(8-(2-((1-methyl-1H-pyrazol-4-yl)amino)pyrimidin-4-yl)-2-(2,2,2-trifluoroethyl)-2,3,4,5-tetrahydro-1H-benzo[c]azepin-5-yl)azetidine-1-carboxamide]
500 to 1500 | < 10 | CC(C)OC1CN(C(=O)NC2CCN(C3COC3)Cc3cc(-c4ccnc(Nc5cnn(C)c5)n4)ccc32)C1 (stereo not drawn) [Example I-188, 3-isopropoxy-N-(8-(2-((1-methyl-1H-pyrazol-4-yl)amino)pyrimidin-4-yl)-2-(oxetan-3-yl)-2,3,4,5-tetrahydro-1H-benzo[c]azepin-5-yl)azetidine-1-carboxamide]
